{"source": "patent US20200190592A1", "about": "“PME-1 AS A BIOMARKER TO PREDICT AND DIAGNOSE AN INCREASED RISK OF ENDOMETRIAL CANCER AND GENE SILENCING OF PME-1 TO INHIBIT EPITHELIAL TO MESENCHYMAL TRANSITION” (Medical Diagnostic Laboratories, L.L.C., priority 2018, published 2020)", "format_in_all_cases": "cell-based, human", "key": {"[1]": {"tested_on": "RL95-2 cells", "experiment": "BrDU incorporation assay", "settings": "compared to scrambled shRNA control set to 100%", "description": "To confirm our foci formation data that altering PME-1 levels in endometrial cancer cells affect their rate of cell proliferation, we conducted a BrDU incorporation assay. BrDU is incorporated into newly synthesized DNA and can be detected with antibodies; thus, increased BrDU incorporation correlates with an increased level of proliferation.\nThe BrDU Incorporation assay was completed with RL95-2 cell lines in media supplemented with 2.5 μg/ml puromycin. Cells were plated at 0.5*10^4 cells per well into a 96 well dish with 0% FBS and allowed to settle for 24 hours. The assay was completed as per kit instructions (Roche, Cell Proliferation ELISA, BrdU colorimetric cat. #11647229001). Briefly, 10 uM BrdU was added to the cells, 24 hours later cells were fixed and denatured with FixDenat from the kit and allowed to incubate with anti-BrdU antibody for up to two hours. Following the incubation and addition of the kit substrate, absorbances were read using FluoStar Galaxy."}, "[2]": {"tested_on": "RL95-2 cells", "experiment": "Immunofluorescence for phosphorylated histone H3 (mitotic cells)", "settings": "−PME-1 cells compared to control cells", "description": "Endometrial cancer cells were stained for phosphorylated histone H3 on serine 10, a marker of mitotic cells, followed by counterstaining with DAPI (FIG. 12) to identify all cells.\nFor analysis of patient samples, tissues were blocked for 2 hr with 10% FBS in TBST for at RT, incubated with each primary antibody (together) overnight at 4° C., washed three times for 15 min in TBST, incubated with each secondary fluorescent antibody (together) for 1 hr at RT, washed again as above, stained with DAPI and mounted with cover-slips using vectashield mounting media (Vector Labs). Primary antibodies used were for PME-1 (Santa Cruz), E-cadherin (Millipore), and vimentin (Genscript). 1×10^3RL95-2 cells were plated on a chamber slide and were incubated overnight at 37° C. Slides were fixed with 4% paraformaldehyde (PFA) on ice for two hours. The cells were incubated with the primary antibody to Histone 3 (pH3) phosphorylated at Ser10 (1:200, Cell Signaling Technologies) overnight and developed with the secondary anti-rabbit Alexa-Fluor 555 antibody (Cell Signaling Technologies). DAPI was used as a nuclear counter-stain (Sigma Aldrich). Images were taken with the Nikon Eclipse TE2000 at 20×."}, "[3]": {"tested_on": "PME-1", "experiment": "Western blot of PME-1 protein in RL95-2 cells", "settings": "GAPDH loading control, listed as shRNA #2", "text": "We prepared RL95-2 cell lines expressing empty vector (control), over-expressing PME-1 (+PME-1), or expressing shRNA against PPME1, the gene that codes for PME-1 protein (−PME-1). Using these cells, we confirmed the appropriate level of PME-1 via real-time RT-PCR (data not shown) and Western blot analysis (FIG. 8). GAPDH was used as a loading control.\nWe also prepared two different shRNAs targeted against PME-1.\nLentivirus was produced in HEK293T cell lines with pLKO shRN vectors (Thermo Scientific, cat. no. RHS4533; Waltham, Mass.) and pCDH-CuO-GFP-Puro vectors (System Biosciences, Inc., cat. no. QM513B-1; Mountain View, Calif.) with pPACKH1 packaging plasmid (System Biosciences, Inc., cat, no. LV050A-1). shRNA sequences are in the Table 2. Lentivirus was collected and concentrated with Peg-IT concentrating solution (System Biosciences, Inc.). 5×10^6 ifu/ml lentivirus was added to cell cultures with growth media and 8 μg/ml PolyBrene (Sigma Aldrich). Media was changed to full growth media after 24 hrs and to selection media containing antibiotic after 48 hrs (5 μg/ml puromycin) (Invivogen) for 10 days.\n15 μg of protein was used for western analysis. […]"}, "[4]": {"tested_on": "DcR2", "experiment": "Senescence assay (Western for DcR2)", "settings": "RL95-2 lysates, GAPDH loading control", "description": "We next analyzed cell lysates taken from RL95-2 cells that expressed either empty vector (Control), overexpressed PME-1 (+PME-1) or expressed shRNA against PME-1 (−PME-1) for DcR2 protein.\n15 μg of protein was used for western analysis. PME-1 antibody (Santa Cruz) and COXIV (Cell Signaling Technologies) were used for detection of proteins and the blots were developed using chemiluminescence (Pierce ECL Western Blotting Substrate—Thermo Scientific) on the GE ImageQuant LAS 4000. For analysis of Akt, ERK, and β-catenin signaling in tissue culture, western analyses were completed as follows. RL95-2 cells stably infected with lentivirus expressing constructs were selected with puromycin (Invivogen). The cells were incubated with either 50 μM Akt inhibitor (LY 294002, Cell Signaling Technologies) or 40 μM ERK inhibitor (V0126, Cell Signaling Technologies) for 1-2 hours at 37° C. 1.5× Laemelli buffer (0.5 M Tris pH6.8, […], 10% sodium dodecyl sulfate, 100 mM EDTA) was used to prepare cell lysates. 20 μg of protein was used for western analysis. Primary antibodies used were: P-Akt (Ser473), P-Akt (Thr308), pan-Akt, P-ERK (Thr202/204), total ERK (Cell Signaling Technologies), PME-1 (Santa Cruz), phospho-β-catenin (Ser45, Cell Signaling Technologies), phospho-β-catenin (Ser33/37/Thr41, Cell Signaling Technologies), β-catenin (Abcam), DcR2 (Abcam), and GAPDH (Abcam). […]"}, "[5]": {"tested_on": "β-catenin", "experiment": "Western analysis of β-catenin in RL95-2 cells", "text": "We performed Western blot analysis in RL95-2 cells that were expressing empty vector (Control), over-expressing PME-1 (+PME-1) or expressing shRNA against PME-1 (−PME-1) to examine the protein stability of β-catenin (FIG. 19A). We observed a decrease in total β-catenin protein in cells that were over-expressing PME-1. This observation is correlated with the predicted ubiquitylation of β-catenin and its degradation. Conversely, a depletion of PME-1 led to stabilization of total β-catenin (FIG. 19A).\nIn another series of study, we performed a similar assay in which cells were treated with 10 μM MG-132 prior to protein extraction. MG-132 is a proteasome inhibitor and therefore allows for the accumulation of phosphorylated β-catenin, which is normally quickly degraded, to be detected by western analysis.\n15 μg of protein was used for western analysis. PME-1 antibody (Santa Cruz) and COXIV (Cell Signaling Technologies) were used for detection of proteins and the blots were developed using chemiluminescence (Pierce ECL Western Blotting Substrate—Thermo Scientific) on the GE ImageQuant LAS 4000. For analysis of Akt, ERK, and β-catenin signaling in tissue culture, western analyses were completed as follows. RL95-2 cells stably infected with lentivirus expressing constructs were selected with puromycin (Invivogen). […]"}, "[6]": {"tested_on": "WNT3 and WNT3A", "experiment": "qRT-PCR of WNT3 and WNT3A expression in RL95-2 cells", "settings": "RL95-2, normalized to 18S", "description": "Using RL95-2 endometrial cancer cells, we overexpressed PME-1 (FIG. 21A) or depleted PME-1 with shRNA (FIG. 21B) and confirmed that PME-1 was appropriately expressed.\nTotal RNA was extracted with Qiagen RNAEasy kit from RL95-2 cells. cDNA was synthesized using 500 ng-1 μg of RNA and SuperScript VILO c-DNA mix (Life Technologies). Taqman probes and PCR-mix were purchased from Life Technologies. All samples were run in triplicates. Results are representative of three independent experiments in which genes of interest were normalized to the house-keeping gene, 18S or GAPDH, where fold-change was calculated using the ddCt method."}}, "note": "“Also recorded” adds a separate entry of the source.", "data": [{"substance": "shPPME1 no. 2: shRNA targeting PPME1, SEQ ID NO: 2: GCAGCGATTATTAGTAGAGTT, bp 289-309; used for all subsequent experiments (guide GCAGCGATTATTAGTAGAGTT; listed as Homo sapiens)", "values": [{"measurement": "decrease in BrDU incorporation", "setting": "[1]", "value": 40, "unit": "%"}, {"measurement": "decreased proliferation (phospho-histone H3 positive cells)", "setting": "[2]", "value": "~30", "unit": "%"}, {"measurement": "PME-1 levels via Western blot analysis", "setting": "[3]", "value": "significantly decreased; also recorded: best depletion"}, {"measurement": "senescent marker protein DcR2", "setting": "[4]", "value": "increase"}, {"measurement": "total β-catenin", "setting": "[5]; absence of MG-132", "value": "stabilization"}, {"measurement": "phosphorylated β-catenin", "setting": "[5]; cells treated with 10 μM MG-132, compared to control cells", "value": "did not lead to an increase"}, {"measurement": "WNT3 and WNT3A expression", "setting": "[6]", "value": "significantly decreased"}]}]}
